For data set [1], the system named is Lucena-1 (K562/VCR). Put plainly: cells. The class given is cell-based, human. Conditions: for RR (relative resistance) Lucena-1: (EC50 MDR cells)/(EC50 parental cells), Lucena-1/K562; for EC50: Homo sapiens, Lucena 1, 72 h, read-out: EC50 Lucena-1. In a few lines:
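K562 and its MDR sublines Lucena-1 (maintained in 60 nM VCR) and FEPS (500 nM DNR) seeded at 2 × 10^4 cells/mL in RPMI-1640 with 10% FBS, treated with compounds at 1–100 μM (0.5% DMSO controls). MTT 0.5 g/L for 3 h, A570 read; EC50 by logarithmic regression, three independent experiments.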

Data set [2] has as its system L. amazonensis promastigotes. Put plainly: Anti-L. amazonensis promastigote assessment (MTT). Conditions: Leishmania amazonensis; 48 h, MTT; read-out: EC50 L. amazonensis promastigotes. The class given is cell-based. In short, it runs like this:
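Stationary-phase promastigotes (MHOM/BR/75/Josefa) in Schneider's medium with 10% FBS, 0.3% DMSO vehicle, exposed 48 h at 27 °C; 10 µM amphotericin B as positive control. MTT viability read at 570 nm, normalised to controls; EC50 by logarithmic regression, mean ± SD of three independent experiments.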

The test system of data set [3] is L. amazonensis amastigotes. Briefly: Anti-L. amazonensis amastigote assessment in RAW 264.7 macrophages. The class given is cell-based, Leishmania amazonensis. The following applies: for EC50: Leishmania amazonensis, RAW264.7, in RAW 264.7, 48 h, read-out: EC50 L. amazonensis intracellular amastigotes; for S.I. (selectivity index): host cell/parasite EC50 ratio, RAW/L. amazonensis. On the procedure: RAW 264.7 cells were seeded in a 96-well microplate (2.0 × 10^4 cells per well) in complete DMEM with 5% FBS and incubated for 3 h at 37 °C in 5% CO2 for cell adhesion. The medium was renewed, and L. amazonensis promastigotes (3.0 × 10^5 parasites per well) were added. After 24 h of incubation at 37 °C in 5% CO2, the cell monolayer was washed with PBS to remove noninternalized parasites, the medium was renewed, and compounds were added at a range of concentrations in triplicate (100–1 μM). Untreated infected cells and noninfected RAW 264.7 cells were used as negative and positive controls, respectively. Vehicle control containing DMEM and 0.3% DMSO was maintained for comparison. After incubation for 48 h at 37 °C in 5% CO2, the medium was removed, and a solution containing 0.02% SDS in PBS (20 µL per well) was added. Macrophage lysis and amastigote release were accompanied under an inverted microscope for 10–15 min. SIM with 12.5% SFB (80 µL per well) was added, parasites were allowed to differentiate into promastigotes for 48 h at 27 °C, and an MTT salt solution in PBS was added (3.0 mM, 20 µL per well). After incubation for 2 h at 27 °C, the MTT formazan was dissolved by adding 120 µL of solubilizing buffer (50% isopropanol, 40% acetate buffer pH 5.4, 10% Triton X). Absorbance was measured using a microplate reader at 570 nm.
(§1) The percent cell or parasite viability was calculated by the formula: % viability = [(A − P)/(N − P)] × 100, A = absorbance of specific well, P = positive control, N = negative control. Determination of half-maximal effective concentrations (EC50), calculated by logarithmic regression, and significance analysis (p < 0.05), using ANOVA and Dunnett’s test, by GraphPad Prism 7.0 software. The results are expressed as the mean and standard deviation (SD) of three independent experiments.

Data set [4] concerns T. cruzi amastigotes (Tulahuen C2C4 LacZ strain). Put plainly: microbe, parasite or virus in culture. The class given is cell-based, Trypanosoma cruzi. Conditions: for viability at 50 µM: LLC-MK2, 120 h; for EC50: in LLC-MK2, 120 h, read-out: EC50 T. cruzi intracellular amastigotes; for S.I. (selectivity index): host cell/parasite EC50 ratio, LLC-MK2/T. cruzi. The method, then: To a monolayer of 1.0 × 10^7 LLC-MK2 cells in a 150 cm^2 culture flask were added 5.0 × 10^7 trypomastigotes of T. cruzi expressing the […] (Tulahuen C2C4 LacZ) in complete DMEM with 2.5% FBS. The infection was allowed to occur for 24 h, the supernatant was removed, and the cell monolayer was washed with PBS. Complete DMEM with 2.5% FBS was renewed every 2 days up to the sixth day after infection. Trypomastigote forms were collected daily from the supernatant between days 7 and 12 after infection, enriched by differential centrifugation (1500× g for 10 min, 5580× g for 20 min), and resuspended in complete DMEM with 5% FBS. Parasite density was determined by counting the mobile trypomastigotes on Neubauer chambers before use.
. The medium was renewed, and trypomastigote forms of T. cruzi (Tulahuen C2C4 LacZ strain, 2.0 × 10^5 parasites per well) were added. After incubation for 24 h at 37 °C in 5% CO2, the cell monolayer was washed with PBS to remove noninternalized parasites. DMEM without phenol red and 5% FBS was added, and infected cells were treated with compounds at a range of concentrations in triplicate (50 μM or 100–1 μM). Untreated infected cells and noninfected LLC-MK2 cells were used as negative and positive controls, respectively. Vehicle control containing DMEM without phenol red and 0.3% DMSO was maintained for comparison. After incubation for 120 h at 37 °C in 5% CO2, a solution containing […] and 0.8% IGEPAL CA-630 in PBS (30 µL per well), followed by further incubation for 2 h at 37 °C in 5% CO2. Absorbance was measured using a microplate reader at 570 nm.
as §1

[5] abbreviates: Trypanosoma cruzi, TULAHUEN, screening at 50 μM, 120 h, compared with untreated controls.

These results are taken from article PMC9787607, “A Novel Protocol for the Synthesis of 1,2,4-Oxadiazoles Active against Trypanosomatids and Drug-Resistant Leukemia Cell Lines” (Tropical Medicine and Infectious Disease, 2022).

By EC50 is commonly meant the concentration giving half of the maximal effect. As usually defined, the viability is the share of living cells, or the viability signal relative to a control.

`COc1cc(-c2noc(/C=C/c3ccc4c(c3)OCO4)n2)cc(OC)c1OC` [Compound 24, (E)-3-(3,4,5-trimethoxyphenyl)-5-[2-(3,4-methylenedioxy-phenyl)vinyl]-1,2,4-oxadiazole]: in data set [1], the “RR (relative resistance) Lucena-1” value is reported as 1.37. In addition, the 50% effective concentration (EC50) was 82.6 ± 10.8 µM in data set [1]; 10 ± 2.7 µM in data set [2]; 24.8 ± 10.4 µM in data set [3]; 28.7 ± 3.1 µM in data set [4] (Trypanosoma cruzi, TULAHUEN). In addition, the “S.I. (selectivity index)” value in data set [3] came to 2.3; in data set [4], 1.9. The compound also gave a viability at 50 µM in data set [4] (setting [5]) of 42.2 ± 2.7%.
`C(=C\c1nc(-c2ccccc2)no1)/c1cccnc1` [Compound 15, (E)-3-phenyl-5-[2-pyridyn-3-yl-vinyl]-1,2,4-oxadiazole]: the “RR (relative resistance) Lucena-1” value in data set [1] was determined as 0.97. Further, the EC50 turned out to be 26.7 ± 7.2 µM in data set [1]; 53.6 ± 2.2 µM in data set [2]; 33.8 ± 2.3 µM in data set [4] (Trypanosoma cruzi, TULAHUEN). In data set [4] (setting [5]), the viability at 50 µM stood at 33.8%. For the same compound, in data set [4], the “S.I. (selectivity index)” value is above 3.0. Also, the “% Viability T. cruzi amastigotes” value in data set [4] (screening at 50 μM, 120 h, compared with untreated controls, 50 µM) turned out to be 21.5 ± 2.2%.
Take `COc1cc(/C=C/c2nc(-c3cc(OC)c(OC)c(OC)c3)no2)cc(OC)c1OC` [Compound 23, (E)-3-(3,4,5-trimethoxyphenyl)-5-[2-(3,4,5-trimethoxyphenyl)-vinyl]-1,2,4-oxadiazole]: the “RR (relative resistance) Lucena-1” value in data set [1] is 0.94. For the same compound, the EC50 came out at 12.4 ± 2.5 µM in data set [1]; 12.2 ± 0.7 µM in data set [2]; 13.5 ± 3.6 µM in data set [3]; 2.9 ± 0.2 µM in data set [4] (Trypanosoma cruzi, TULAHUEN). For the same compound, the “lowest concentration with significant amastigote growth inhibition compared with host cell toxicity” value amounted to 16 µM in data set [3] (L. amazonensis vs RAW 264.7, p < 0.05) and 1.0 µM in data set [4] (T. cruzi vs LLC-MK2, p < 0.05). The figures for the “S.I. (selectivity index)” value in data set [3] and in data set [4] were above 7.4 and 26.7, respectively. The viability at 50 µM in data set [4] (setting [5]) stood at 8.6 ± 1.2%. Besides, the viability at 1 µM in data set [4] (Trypanosoma cruzi, TULAHUEN, LLC-MK2, T. cruzi amastigotes at 1.0 μM, read-out: amastigote viability) worked out at 81.3 ± 6.2%.
Consider `COc1cc(/C=C/c2nc(-c3ccccc3)no2)cc(OC)c1OC` [Compound 12, (E)-3-phenyl-5-[2-(3,4,5-trimethoxyphenyl)vinyl]-1,2,4-oxadiazole], for which the “RR (relative resistance) Lucena-1” value in data set [1] was found to be 2.42. Moreover, the EC50 in data set [1] stood at 43.5 ± 1.8 µM; in data set [2] it was 26 ± 3 µM; in data set [3] it was 50.1 ± 16.4 µM; in data set [4] (Trypanosoma cruzi, TULAHUEN) it was 22.5 ± 3.7 µM. Further, the “S.I. (selectivity index)” value in data set [3] is reported as above 2.0; in data set [4], above 4.5. Moreover, in data set [4] (setting [5]), the viability at 50 µM worked out at 37.8 ± 2.6%.
